Laboratory results: ChEMBL document CHEMBL2417463, “Synthesis and identification of new flavonoids targeting liver X receptor β involved pathway as potential facilitators of Aβ clearance with reduced lipid accumulation” (J Med Chem, 2013)
Active and inactive are the calls of the source. No cut-off for these calls is given here.

Key:
BV-2 [1] = test: Cytotoxicity against mouse BV2 cells assessed as inhibition of cell viability at 50 uM after 48 hrs by SRB assay relative to vehicle-treated control; assay type: cell-based; details: bv-2, 48 h
Mus musculus [2] = test: (§1) Antialzheimer activity in double transgenic B6C3 mouse overexpressing APP swedish mutant and PSEN1dE9 assessed as reduction of insoluble amyloid beta42 level at 10 mg/kg, ip administered 3 times per week measured after 6 weeks by ELISA relative to vehicle-treated control; assay type: functional; design: scale not given: the % may be the effect or the level left; details: route intraperitoneal
[3] = biological target: T1, Oxysterols receptor LXR-beta (Homo sapiens) (UniProt P55055); test: Agonist activity at human LXRbeta transfected in HEK293 cells at 1 uM after 24 hrs by luciferase reporter gene assay relative to vehicle-treated control; assay type: cell-based
T1 sequence (whole entry): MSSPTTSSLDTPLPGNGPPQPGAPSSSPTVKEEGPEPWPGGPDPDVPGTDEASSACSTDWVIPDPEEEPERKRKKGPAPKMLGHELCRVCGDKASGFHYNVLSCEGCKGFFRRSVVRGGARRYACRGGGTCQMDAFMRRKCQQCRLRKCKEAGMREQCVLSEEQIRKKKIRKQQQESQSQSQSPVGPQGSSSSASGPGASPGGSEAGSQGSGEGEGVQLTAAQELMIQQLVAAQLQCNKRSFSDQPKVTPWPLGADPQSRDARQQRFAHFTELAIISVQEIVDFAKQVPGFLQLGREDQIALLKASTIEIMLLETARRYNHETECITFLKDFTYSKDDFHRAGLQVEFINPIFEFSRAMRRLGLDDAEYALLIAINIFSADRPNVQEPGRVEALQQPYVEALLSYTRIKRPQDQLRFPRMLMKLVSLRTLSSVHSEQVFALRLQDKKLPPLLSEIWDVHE

[4] = biological target: T1, Oxysterols receptor LXR-beta (Homo sapiens); test: Agonist activity at human LXRbeta transfected in HEK293 cells at 0.1 uM after 24 hrs by luciferase reporter gene assay relative to vehicle-treated control; assay type: cell-based
[5] = biological target: T2, Oxysterols receptor LXR-beta (Mus musculus) (UniProt Q60644); test: Agonist activity at LXRbeta in mouse RAW264.7 cells assessed as upregulation of ABCA1 protein expression at 1 uM after 18 to 48 hrs by Western blot analysis; assay type: cell-based
T2 sequence (whole entry): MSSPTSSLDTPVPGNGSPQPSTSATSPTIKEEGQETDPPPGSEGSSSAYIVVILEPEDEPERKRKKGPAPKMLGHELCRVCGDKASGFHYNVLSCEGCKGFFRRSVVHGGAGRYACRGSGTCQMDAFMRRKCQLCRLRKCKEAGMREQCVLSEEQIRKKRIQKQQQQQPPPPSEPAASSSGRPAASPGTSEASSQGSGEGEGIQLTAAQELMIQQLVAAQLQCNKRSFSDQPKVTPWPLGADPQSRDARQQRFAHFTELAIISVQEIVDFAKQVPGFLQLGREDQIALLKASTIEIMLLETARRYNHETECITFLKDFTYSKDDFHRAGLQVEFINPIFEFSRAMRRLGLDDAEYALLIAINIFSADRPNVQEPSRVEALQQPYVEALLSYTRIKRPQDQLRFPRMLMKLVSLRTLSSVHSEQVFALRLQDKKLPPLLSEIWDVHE

BV-2 [6] = test: Upregulation of NEP mRNA expression in mouse BV2 cells at 0.01 to 1 uM after 18 hrs by real-time qPCR analysis; assay type: functional, cell-based
Mus musculus [7] = test: Antialzheimer activity in double transgenic B6C3 mouse overexpressing APP swedish mutant and PSEN1dE9 assessed as reduction of soluble amyloid beta42 level at 10 mg/kg, ip administered 3 times per week measured after 6 weeks by ELISA relative to vehicle-treated control; assay type: functional; design: scale not given: the % may be the effect or the level left; details: route intraperitoneal
Mus musculus [8] = test: as §1, with “of” for “of insoluble”, “plaque number in brain” for “level”, “thioflavin S staining-based fluorescence microscopic analysis” for “ELISA”; assay type: functional, organism-based; design: dose 10 mg/kg
Mus musculus [9] = test: as §1, with “of” for “of insoluble”, “plaque number in hippocampus” for “level”, “OC staining-based fluorescence microscopic analysis” for “ELISA”; assay type: functional; design: scale not given: the % may be the effect or the level left; details: route intraperitoneal
[10] = biological target: T2, Oxysterols receptor LXR-beta (Mus musculus); test: Agonist activity at LXRbeta in mouse BV2 cells assessed as upregulation of ABCA1 protein expression after 12 to 48 hrs by Western blot analysis; assay type: cell-based; details: BV-2
[11] = biological target: T3, Oxysterols receptor LXR-alpha (Homo sapiens) (UniProt Q13133); test: Agonist activity at human LXRalpha transfected in HEK293 cells at 1 uM after 24 hrs by luciferase reporter gene assay relative to vehicle-treated control; assay type: cell-based
T3 sequence (whole entry): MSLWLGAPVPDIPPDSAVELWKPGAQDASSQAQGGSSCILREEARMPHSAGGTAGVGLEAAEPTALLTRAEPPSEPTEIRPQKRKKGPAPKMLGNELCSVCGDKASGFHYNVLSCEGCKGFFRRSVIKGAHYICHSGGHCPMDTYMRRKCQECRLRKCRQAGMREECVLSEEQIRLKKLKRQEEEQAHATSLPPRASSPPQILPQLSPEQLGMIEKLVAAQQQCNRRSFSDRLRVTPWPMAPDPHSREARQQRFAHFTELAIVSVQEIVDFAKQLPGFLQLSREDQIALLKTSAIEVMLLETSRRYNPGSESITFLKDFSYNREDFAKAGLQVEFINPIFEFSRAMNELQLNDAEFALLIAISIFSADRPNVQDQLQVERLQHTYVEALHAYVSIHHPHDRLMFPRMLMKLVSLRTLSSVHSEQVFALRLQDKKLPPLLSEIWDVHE

Mus musculus [12] = test: as §1, with “of” for “of insoluble”, “plaque number in cortex” for “level”, “OC staining-based fluorescence microscopic analysis” for “ELISA”; assay type: functional; design: scale not given: the % may be the effect or the level left; details: route intraperitoneal

fold change (FC) [3]: 1.79
fold change (FC) [4]: 1.07
Activity [5]: Active
Activity [10]: Dose-dependent effect
fold change (FC) [11]: 1.19
Structure (SMILES): Cc1ccc(/C=C/C(=O)c2ccc(N)cc2O)o1
Activity (BV-2 [1]): Non-toxic
Activity (Mus musculus [2]): 26%
Activity (BV-2 [6]): inactive
Activity (Mus musculus [7]): 31%
Activity (Mus musculus [8]): Active
Activity (Mus musculus [9]): 20%
Activity (Mus musculus [12]): 30%
